Source: US20240059658A1 (Emory University, priority 2019, published 2024)

How the values were obtained:
[1] = system: EU-1; assay: WST cytotoxicity assay, cancer cell EU-1; type: cell-based, human; settings: Homo sapiens, EU-1, EU-1; no other cell line named in the cell; read-out: Cancer cell (EU-1) cytotoxicity IC50
Description: This study used two ALL cell lines (EU-1 and EU-3) and three NB cell lines (NB-1643, SHEP1 and LA1-55N). All 5 cancer cell lines were established from pediatric ALL or NB patients and were well-characterized for their expression of MDM2 and p53-status, as reported previously. All cell lines were grown in standard culture medium (RPMI 1640 containing 10% FBS, 2 mmol/L L-glutamine, 50 U penicillin and 50 μg/mL streptomycin) at 37° C. in a humidified atmosphere containing 5% CO2.
The cytotoxic effect of MX 69 and MX69 analogs on cancer cells was determined using the water-soluble tetrazolium salt (WST) assay. Briefly, cells cultured in 96-well microtiter plates were treated with different concentrations of AQ-101 for a 20-h period. WST (25 μg/well) was then added and incubation continued for an additional 4 h, after which optical density (OD) was read with a microplate reader (test wavelength of 450 nm; reference wavelength of 620 nm).

[2] = target: T1, MDM2 (Homo sapiens, UniProt Q00987); assay: MDM2 reduction / expression (Western blot); type: cell-based; settings: words or +/− grades, key not given
T1 construct: ubiquitination of endogenous MDM2 in EU-1 cells; endogenous in cells; host or cells: EU-1 (ALL) cells
T1 sequence (Q00987 whole entry): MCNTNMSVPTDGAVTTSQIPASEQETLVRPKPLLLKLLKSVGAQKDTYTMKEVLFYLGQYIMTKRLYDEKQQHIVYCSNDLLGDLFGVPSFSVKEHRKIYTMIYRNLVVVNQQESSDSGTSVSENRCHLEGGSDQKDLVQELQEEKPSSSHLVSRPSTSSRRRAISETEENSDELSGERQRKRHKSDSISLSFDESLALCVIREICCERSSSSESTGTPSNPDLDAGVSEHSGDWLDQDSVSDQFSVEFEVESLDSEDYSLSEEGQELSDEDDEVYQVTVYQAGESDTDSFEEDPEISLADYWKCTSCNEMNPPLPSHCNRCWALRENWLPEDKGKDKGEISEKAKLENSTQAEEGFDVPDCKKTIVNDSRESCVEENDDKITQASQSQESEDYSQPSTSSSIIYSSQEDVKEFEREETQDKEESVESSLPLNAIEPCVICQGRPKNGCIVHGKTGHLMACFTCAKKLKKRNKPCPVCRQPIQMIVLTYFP
Description: (§1) Cells were lysed in a buffer composed of 50 mM Tris, pH 7.6, 150 mM NaCl, 1% Nonidet P-40, 10 mM sodium phosphate, 10 mM NaF, 1 mM sodium orthovanadate, 2 mM phenylmethylsulfonyl fluoride (PMSF), […], 10 μg/mL leupeptin and 10 μg/mL pepstatin. After centrifugation, the clarified cell lysate was separated from the pellet of cell debris, and then incubated with 15 μL Protein G/Protein A-agarose and 1 μg of antibodies, overnight at 4° C. For the Western blot, the resulting cell lysates or immunoprecipitates were resolved by SDS-PAGE. They were then transferred to a nitrocellulose filter and probed with the specific antibodies as listed in the supplemental Materials section. Finally, proteins were visualized with a chemiluminescent detection system.

[3] = system: p53; assay: p53 induction / expression (Western blot); type: cell-based; settings: words or +/− grades, key not given
Description: as §1

MDM2 reduction [2] | SMILES | IC50 [1] [nM] | p53 induction [3]
inhibition | Cc1ccc(NS(=O)(=O)c2ccc3c(c2)C2OCC[C@H]2C(c2ccc(C(=O)c4ccccc4)cc2)N3)cc1C (stereo in doubt) [Compound 69L54] | 3220 | 
inhibition | Cc1ccc(NS(=O)(=O)c2ccc3c(c2)C2OCC[C@H]2C(c2ccc(C(O)C(C)C)cc2)N3)cc1C (stereo in doubt) [Compound 69L87, N-(3,4-dimethylphenyl)-4(4-(1-hydroxy-2-methylpropyl)phenyl)-2,3,3a,4,5,9b-hexahydrofuro[3,2-c]quinoline-8-sulfonamide] | 1980 | inhibition
inhibition | CC(=O)c1cccc(C2Nc3ccc(S(=O)(=O)Nc4ccc(C)c(C)c4)cc3C3OCC[C@@H]23)c1 (stereo in doubt) [Compound 69L93, 4-(3-acetylphenyl)-N-(3,4-dimethylphenyl)-2,3,3a,4,5,9b-hexahydrofuro[3,2-c]quinoline-8-sulfonamide] | 1950 | induction
inhibition | CC(=O)c1ccc(NS(=O)(=O)c2ccc3c(c2)[C@H]2OCC[C@H]2C(c2cccc(C(C)=O)c2)N3)cc1 (stereo in doubt) [Compound 69L101, 4-(3-acetylphenyl)-N-(4-acetylphenyl)-2,3,3a,4,5,9b-hexahydrofuro[3,2-c]quinoline-8-sulfonamide] | 1800 | 
No MDM2 | CC(=O)c1cccc(NS(=O)(=O)c2ccc3c(c2)[C@H]2OCC[C@H]2C(c2cccc(C(C)=O)c2)N3)c1 (stereo in doubt) [Compound 69L103, N,4-bis(3-acetylphenyl)-2,3,3a,4,5,9b-hexahydrofuro[3,2-c]quinoline-8-sulfonamide] | 970 | 
inhibition | CC(=O)c1ccc([C@@H]2Nc3ccc(S(=O)(=O)Nc4ccc(C)c(C)c4)cc3[C@H]3C=CC[C@H]32)cc1 [Compound 69L48] | 3800 | 
No MDM2 | Cc1ccc(NS(=O)(=O)c2ccc3c(c2)[C@H]2OCC[C@H]2[C@H](C2CCNCC2)N3)cc1C [Compound 69L55] | 1640 | 
inhibition | Cc1ccc(NS(=O)(=O)c2ccc3c(c2)[C@H]2OCC[C@H]2[C@H](C2CCC(C(C)C)CC2)N3)cc1C (stereo partly drawn) [Compound 69L56, N-(3,4-dimethylphenyl)-4-(4-isopropylcyclohexyl)-2,3,3a,4,5,9b-hexahydrofuran[3,2-c]quinolone-8-sulfonamine] | 10200 | 
No MDM2 | O=S(=O)(Nc1ccccc1)c1ccc2c(c1)[C@H]1OCC[C@H]1[C@H](C1CCCCC1)N2 [Compound 69L66] | 2560 | 
No MDM2 | Cc1ccc(NS(=O)(=O)c2ccc3c(c2)[C@H]2OCC[C@H]2C(c2ccc(C(=O)C4CCCCC4)cc2)N3)cc1C (stereo partly drawn) [Compound 69L70] | 3090 | 
No MDM2 | CCCC(=O)c1ccc(C2Nc3ccc(S(=O)(=O)Nc4ccc(C)c(C)c4)cc3[C@H]3OCC[C@@H]23)cc1 (stereo partly drawn) [Compound 69L72] | 2940 | 
No MDM2 | Cc1ccc(NS(=O)(=O)c2ccc3c(c2)[C@H]2OCC[C@H]2C(c2ccc(C(=O)C(C)C)cc2)N3)cc1Cl (stereo partly drawn) [Compound 69L73, N-(3-chloro-4-methylphenyl)-4-(4-isobutyrylphenyl)-2,3,3a,4,5,9b-hexahydrofuran[3,2-c]quinolone-8-sulfonamide] | 1560 | 
No MDM2 | CC(C)C(=O)c1ccc(C2Nc3ccc(S(=O)(=O)Nc4ccccc4)cc3[C@H]3OCC[C@@H]23)cc1 (stereo partly drawn) [Compound 69L75] | 3210 | 
No MDM2 | CC(C)C(=O)c1ccc(C2Nc3ccc(S(=O)(=O)N[C@H]4CC[C@H](C)CC4)cc3[C@H]3OCC[C@@H]23)cc1 (stereo partly drawn) [Compound 69L78] | 3670 | 
No MDM2 | Cc1cc(NS(=O)(=O)c2ccc3c(c2)[C@H]2OCC[C@H]2C(c2ccc(C(=O)C(C)C)cc2)N3)ccc1F (stereo partly drawn) [Compound 69L79] | 2910 | 
No MDM2 | Cc1ccc(NS(=O)(=O)c2ccc3c(c2)[C@H]2C=CC[C@H]2[C@H](c2ccc(C(=O)C(C)C)cc2)N3)cc1C [Compound 69L80] | 2660 | 
No MDM2 | Cc1ccc(NS(=O)(=O)c2ccc3c(c2)C2OCC[C@H]2C(c2cccc(C(=O)C(C)C)c2)N3)cc1C (stereo partly drawn) [Compound 69L94] | 3560 | 

MDM2 reduction [2] | SMILES | IC50 [1] [nM] | p53 induction [3]
inhibition | Cc1cccc(NS(=O)(=O)c2ccc3c(c2)[C@H]2OCC[C@H]2[C@H](c2ccc(C(=O)C(C)C)cc2)N3)c1 [Compound 69L95] | 1420 | 
inhibition | Cc1cccc(NS(=O)(=O)c2ccc3c(c2)C(=O)CC(c2ccc(C(=O)C(C)C)cc2)N3)c1 (stereo not drawn) [Compound 69L99, 2-(4-isobutyrylphenyl)-4-oxo-N-(m-tolyl)-1,2,3,4-tetrahydroquinoline-6-sulfonamide] | 230 | 
No MDM2 | CC(C)C(=O)c1ccc(C2CC(=O)c3cc(S(=O)(=O)Nc4ccc(Cl)c(Cl)c4)ccc3N2)cc1 (stereo not drawn) [Compound 69L100, N-(3,4-dichlorophenyl)-2-(4-isobutyrylphenyl)-4-oxo-1,2,3,4-tetrahydroquinoline-6-sulfonamide] | 1870 | 
No MDM2 | O=S(=O)(Nc1ccc(Cl)c(Cl)c1)c1ccc2nc(C3CCCCC3)ccc2c1 [Compound 69L105] | 3120 | 
inhibition | Cc1ccc(NS(=O)(=O)c2ccc3c(c2)C(=O)CC(c2ccc(C(=O)C(C)C)cc2)N3)cc1Cl (stereo not drawn) [Compound 69L107, N-(3-chloro-4-methylphenyl)-2-(4-isobutyrylphenyl)-4-oxo-1,2,3,4-tetrahydroquinoline-6-sulfonamide] | 930 | 
inhibition | Cc1cc(NS(=O)(=O)c2ccc3c(c2)C(=O)CC(c2ccc(C(=O)C(C)C)cc2)N3)ccc1F (stereo not drawn) [Compound 69L108, N-(4-fluoro-3-methylphenyl)-2-(4-isobutyrylphenyl)-4-oxo-1,2,3,4-tetrahydroquinoline-6-sulfonamide] | 420 | 
No MDM2 | CC(=O)c1cccc(C2CC(=O)c3cc(S(=O)(=O)Nc4ccc(F)c(C)c4)ccc3N2)c1 (stereo not drawn) [Compound 69L109, 2-(3-acetylphenyl)-N-(4-fluoro-3-methylphenyl)-4-oxo-1,2,3,4-tetrahydroquinoline-6-sulfonamide] | 100 | 
No MDM2 | CC(C)c1ccc(C2Nc3ccc(S(=O)(=O)Nc4cccc(C(C)O)c4)cc3[C@H]3OCC[C@@H]23)cc1 (stereo partly drawn) [Compound 69L116] | 120 | 
No MDM2 | CC(C)C(=O)c1ccc(C2Nc3ccc(S(=O)(=O)Nc4ccc5c(c4)CCO5)cc3[C@H]3OCC[C@@H]23)cc1 (stereo partly drawn) [Compound 69L117] | 300 | 
inhibition | CC(=O)c1cccc(NS(=O)(=O)c2ccc3c(c2)C(=O)CC(c2cccc(C(C)=O)c2)N3)c1 (stereo not drawn) [Compound 69L121, N,2-bis(3-acetylphenyl)-4-oxo-1,2,3,4-tetrahydroquinoline-6-sulfonamide] | 180 | 
inhibition | CC(=O)c1cccc(C2CC(=O)c3cc(S(=O)(=O)Nc4ccc5c(c4)CCO5)ccc3N2)c1 (stereo not drawn) [Compound 69L123, 2-(3-acetylphenyl)-N-(2,3-dihydrobenzofuran-5-yl)-4-oxo-1,2,3,4-tetrahydroquinoline-6-sulfonamide] | < 100 | 
 | CC(=O)c1cccc(S(=O)(=O)Nc2ccc3c(c2)[C@H]2OCC[C@H]2C(c2ccc(C(=O)C(C)C)cc2)N3)c1 (stereo partly drawn) [Compound 69L163, 3-acetyl-N-(4-(4-isobutyrylphenyl)-2,3,3a,4,5,9b-hexahydrofuro[3,2-c]quinolone-8-yl)benzenesulfonamide] | 2500 | 
 | COc1cc(NS(=O)(=O)c2ccc3c(c2)C(=O)CC(c2cccc(C(C)=O)c2)N3)ccc1C (stereo not drawn) [Compound 69L164] | 710 | 
 | COc1cc(NS(=O)(=O)c2ccc3c(c2)C(=O)CC(c2ccc(C(C)=O)cc2)N3)ccc1C (stereo not drawn) [Compound 69L165] | 8900 | 
 | CCc1cccc(NS(=O)(=O)c2ccc3c(c2)C(=O)CC(c2cccc(C(=O)N(C)C)c2)N3)c1 (stereo not drawn) [Compound 69L166] | 110 | 
 | CCc1cccc(NS(=O)(=O)c2ccc3nc(-c4cccc(C(=O)C(C)C)c4)c(OC)cc3c2)c1 [Compound 69L167] | 3600 | 
 | CCc1cccc(NS(=O)(=O)c2ccc3c(c2)C(=O)C(F)C(c2cccc(C(=O)C(C)C)c2)N3)c1 (stereo not drawn) [Compound 69L168] | 340 | 

SMILES | MDM2 reduction [2] | IC50 [1] [nM] | p53 induction [3]
Cc1ccc(NS(=O)(=O)c2ccc3c(c2)C2OCC[C@H]2C(c2ccc(C(=O)C(C)C)cc2)N3)cc1C (stereo partly drawn) [Compound 69L96] | inhibition | 2080 | 
